We go through twelve compounds from US20260083865A1, “PROSTATE SPECIFIC MEMBRANE ANTIGEN (PSMA) LIGANDS AND USE THEREOF” (priority 2022, published 2026).

Assay [1] deals with T1, Fc-fusion protein of human PSMA (hPSMA-Fc) (Homo sapiens, UniProt Q04609).
T1 construct: purchased Acro Biosystems PSA-H5264
Description: Surface plasmon resonance assay (Biacore T200, single cycle kinetic). The class given is binding. Particulars: read-out: pKD CAT (converted). Put shortly:
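hPSMA-Fc was captured (~1000 RU) on an Fc-binding-peptide CM5 chip, and compounds were run in single cycle kinetic mode at 25° C in HBST with 0.1% DMSO. Double-blank-corrected sensorgrams were fitted to a 1:1 Langmuir model to give KD, reported as pKD.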
A general note: SPR reads the build-up and loss of mass on a sensor chip optically.

The target of assay [2] is T2, PSMA-expressing C4-2 cells (Homo sapiens, UniProt Q04609).
T2 construct: PSMA-expressing C4-2 cells (ATCC, Cat. No. CRL-3314) were cultured in RPMI-1640; host or cells: C4-2 cells
Description: FACS binding assay (competition with 50 nM PSM-0183). Particulars: read-out: pIC50 [C4-2] CAT (converted). Put shortly: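 C4-2 cells were incubated 1 h at 4 °C with 50 nM AF488-labelled peptide PSM-0183 plus increasing test compound concentrations, then washed twice in ice-cold buffer. Median fluorescence in the AF488 channel was read by flow cytometry. IC50/pIC50 was derived by 4PL fitting of MFI versus concentration.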
For orientation: A flow cytometer gives signals particle by particle.

The mark [3] stands for this setting: pKD category for PSMA SPR activity assay, hPSMA-Fc, 25° C.
Where [4] appears, read: pIC50 category of FACS binding, C4-2 cells.
The mark [5] stands for this setting: PSMA SPR assay, hPSMA-Fc, 25° C., pKD category.
Where [6] appears, read: FACS binding, PSMA-expressing C4-2 cells, pIC50 category.

Where two headings read alike, the source gives them in different places. Numbered stars: 1 amine (or outer) side, 2 acyl side, 3 side chain; on linkers, the order of the positions; unused ones are H or OH. Bridge positions count the residues as written; N and C are the ends. Square brackets hold non-standard residues; d marks the D form. Side chains are listed from the residue outwards. Peptide text beside a SMILES is read from it. * marks the point of attachment. TtdsdLys(DOTA)NH2 = NC(=O)[C@@H](CCCCNC(=O)CN1CCN(CC(=O)O)CCN(CC(=O)O)CCN(CC(=O)O)CC1)NC(=O)CCC(=O)NCCCOCCOCCOCCCN*; DOTA = O=C(O)CN1CCN(CC(=O)O)CCN(CC(=O)*)CCN(CC(=O)O)CC1; Phe(3-Cl) = N[C@@H](Cc1cccc(Cl)c1)C(=O)O; Phe(4-Cl) = N[C@@H](Cc1ccc(Cl)cc1)C(=O)O; Phe(4-Me) = Cc1ccc(C[C@H](N)C(=O)O)cc1; X1 = O=C(CC1CCN([*:1])CC1)[*:2]; Cit = NC(=O)NCCC[C@H](N)C(=O)O; Tle = CC(C)(C)[C@H](N)C(=O)O; X15 = O=C1NC(=O)C(CC(=O)*)N1; Dap = NC[C@H](N)C(=O)O; Aib = CC(C)(N)C(=O)O; CO = O=C([*:1])[*:2]; Guanidino = N=C(N)N*; βAla = NCCC(=O)O

T1 sequence (Q04609 44-750 limits assumed): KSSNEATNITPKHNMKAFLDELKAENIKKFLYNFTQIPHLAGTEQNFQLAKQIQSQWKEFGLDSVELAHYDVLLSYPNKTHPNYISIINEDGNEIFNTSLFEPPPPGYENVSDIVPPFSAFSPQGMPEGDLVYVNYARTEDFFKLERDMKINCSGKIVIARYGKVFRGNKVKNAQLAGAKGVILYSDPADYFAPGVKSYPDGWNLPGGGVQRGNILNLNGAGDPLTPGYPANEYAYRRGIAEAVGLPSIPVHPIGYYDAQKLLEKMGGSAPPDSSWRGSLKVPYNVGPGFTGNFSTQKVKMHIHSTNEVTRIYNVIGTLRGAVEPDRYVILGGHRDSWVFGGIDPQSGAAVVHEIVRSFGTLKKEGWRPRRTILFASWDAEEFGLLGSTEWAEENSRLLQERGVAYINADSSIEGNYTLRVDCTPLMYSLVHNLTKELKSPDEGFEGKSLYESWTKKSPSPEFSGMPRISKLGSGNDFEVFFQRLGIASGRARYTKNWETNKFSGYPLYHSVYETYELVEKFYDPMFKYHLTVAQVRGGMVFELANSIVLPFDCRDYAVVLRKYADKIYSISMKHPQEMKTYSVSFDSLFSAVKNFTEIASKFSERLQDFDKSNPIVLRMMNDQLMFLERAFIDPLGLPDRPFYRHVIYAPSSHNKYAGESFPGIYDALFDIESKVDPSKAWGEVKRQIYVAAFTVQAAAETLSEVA
T2 sequence (Q04609 whole entry): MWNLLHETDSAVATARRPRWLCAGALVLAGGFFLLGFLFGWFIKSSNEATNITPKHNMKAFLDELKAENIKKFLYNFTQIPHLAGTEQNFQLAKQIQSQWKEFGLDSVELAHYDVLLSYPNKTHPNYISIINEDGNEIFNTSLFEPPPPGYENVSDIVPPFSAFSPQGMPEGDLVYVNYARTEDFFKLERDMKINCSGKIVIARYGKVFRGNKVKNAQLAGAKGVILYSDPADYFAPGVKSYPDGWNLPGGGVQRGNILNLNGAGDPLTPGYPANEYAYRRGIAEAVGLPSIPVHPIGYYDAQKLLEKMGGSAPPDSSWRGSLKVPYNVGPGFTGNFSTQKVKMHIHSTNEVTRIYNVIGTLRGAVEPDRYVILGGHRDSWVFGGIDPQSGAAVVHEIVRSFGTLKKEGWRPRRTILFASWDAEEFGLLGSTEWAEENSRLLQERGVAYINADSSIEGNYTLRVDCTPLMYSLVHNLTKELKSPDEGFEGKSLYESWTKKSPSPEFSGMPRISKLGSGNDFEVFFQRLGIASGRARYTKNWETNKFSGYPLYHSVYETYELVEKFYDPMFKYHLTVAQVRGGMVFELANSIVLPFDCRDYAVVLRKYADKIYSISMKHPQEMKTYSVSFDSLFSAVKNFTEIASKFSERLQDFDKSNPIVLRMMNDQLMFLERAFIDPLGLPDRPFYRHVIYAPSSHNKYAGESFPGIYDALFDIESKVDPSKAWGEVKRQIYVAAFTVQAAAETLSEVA

`CC(=O)N[C@H](C(=O)NC(C)(C)C(=O)N[C@@H](Cc1ccccc1)C(=O)N[C@H]1CSSC[C@@H](C(=O)N[C@H](C(=O)N[C@H](C(N)=O)[C@@H](C)O)C(C)(C)C)NC(=O)[C@H](CCC(=O)O)NC(=O)C(C)(C)NC(=O)[C@H](CCCNC(=N)N)NC(=O)[C@H](CCCCN)NC1=O)[C@@H](C)O` [PSM-0563, Ac-Thr-Aib-Phe-[Cys-Lys-Arg-Aib-Glu-Cys]-Tle-Thr-NH2] (Ac-T[Aib]FCKR[Aib]EC[Tle]T-NH2; disulfide 4-9): in assay [1] (PSMA SPR assay, category), the Kd was 12.6 to 126 nM. In assay [2] (FACS binding, C4-2 cells, category), the IC50 was under 200 nM.

Turning to `C[C@@H](O)[C@H](NC(=O)[C@@H](NC(=O)[C@@H]1CSSC[C@H](NC(=O)[C@H](Cc2ccc(Cl)cc2)NC(=O)C(C)(C)NC(=O)[C@@H](NC(=O)CC2CCN(C(=O)CN3CCN(CC(=O)O)CCN(CC(=O)O)CCN(CC(=O)O)CC3)CC2)[C@@H](C)O)C(=O)N[C@@H](CCCCN)C(=O)N[C@@H](CNC(=O)NC(=N)N)C(=O)NC(C)(C)C(=O)N[C@@H](CC(N)=O)C(=O)N1)C(C)(C)C)C(N)=O` [PSM-0546, DOTA-Cmp-Thr-Aib-Pcf-[Cys-Lys-Urr-Aib-Asn-Cys]-Tle-Thr-NH2] ({DOTA}-[X1]T[Aib][Phe(4-Cl)]CK[Dap]([CO-Guanidino])[Aib]NC[Tle]T-NH2; disulfide 5-10), the Kd in assay [1] (setting [3]) is under 12.6 nM. In addition, the IC50 in assay [2] (setting [4]) is under 200 nM.

Turning to `CC(=O)N[C@@H](Cc1ccccc1)C(=O)N[C@H]1CSSC[C@@H](C(=O)N[C@@H](CC(C)C)C(=O)N[C@H](C(=O)N[C@@H](CC(=O)O)C(=O)NCCCOCCOCCOCCCNC(=O)CCC(=O)N[C@H](CCCCNC(=O)CN2CCN(CC(=O)O)CCN(CC(=O)O)CCN(CC(=O)O)CC2)C(N)=O)[C@@H](C)O)NC(=O)[C@H](CC(N)=O)NC(=O)[C@H](C)NC(=O)[C@H](CCCNC(=N)N)NC(=O)[C@H](CCCCN)NC1=O` [PSM-0323, Ac-Phe-[Cys-Lys-Arg-Ala-Asn-Cys]-Lou-Thr-Asp-Ttds-lys(DOTA)-NH2] (Ac-FCKRANCLTD-{TtdsdLys(DOTA)NH2}; disulfide 2-7), the Kd in assay [1] (setting [5]) was over 501 nM. In addition, the IC50 in assay [2] (setting [6]) is over 3160 nM.

`CC(=O)N[C@H](C(=O)NC(C)(C)C(=O)N[C@@H](Cc1ccc(C)cc1)C(=O)N[C@H]1CSSC[C@@H](C(=O)N[C@H](C(=O)N[C@H](C(N)=O)[C@@H](C)O)C(C)(C)C)NC(=O)[C@H](CC(N)=O)NC(=O)C(C)(C)NC(=O)[C@H](CCCNC(=N)N)NC(=O)[C@H](CCCCN)NC1=O)[C@@H](C)O` [PSM-0372, Ac-Thr-Aib-Pmf-[Cys-Lys-Arg-Aib-Asn-Cys]-Tle-Thr-NH2] (Ac-T[Aib][Phe(4-Me)]CKR[Aib]NC[Tle]T-NH2; disulfide 4-9): in assay [1] (setting [3]), the Kd is under 12.6 nM. Further, the IC50 in assay [2] (setting [4]) was under 200 nM.

As for `CC(=O)N[C@H](C(=O)NC(C)(C)C(=O)N[C@@H](Cc1ccccc1)C(=O)N[C@H]1CSSC[C@@H](C(=O)N[C@H](C(=O)N[C@H](C(N)=O)[C@@H](C)O)C(C)(C)C)NC(=O)[C@H](CC(=O)O)NC(=O)C(C)(C)NC(=O)[C@H](CCCNC(=N)N)NC(=O)[C@H](CCCCN)NC1=O)[C@@H](C)O` [PSM-0478, Ac-Thr-Aib-Phe-[Cys-Lys-Arg-Aib-Asp-Cys]-Tle-Thr-NH2] (Ac-T[Aib]FCKR[Aib]DC[Tle]T-NH2; disulfide 4-9), in assay [1] (setting [3]), the Kd was under 12.6 nM. Further, the IC50 in assay [2] (setting [4]) was under 200 nM.

For `CCCC[C@H](NC(=O)[C@@H]1CSSC[C@H](NC(=O)[C@H](Cc2ccccc2)NC(=O)[C@@H](C)NC(=O)[C@@H](NC(C)=O)[C@@H](C)O)C(=O)N[C@@H](CCCCN)C(=O)N[C@@H](CCCNC(=N)N)C(=O)N[C@@H](C)C(=O)N[C@@H](CC(N)=O)C(=O)N1)C(=O)N[C@H](C(=O)N[C@@H](CC(=O)O)C(N)=O)[C@@H](C)O` [PSM-0537, Ac-Thr-ala-Phe-[Cys-Lys-Arg-Ala-Asn-Cys]-Nlc-Thr-Asp-NH2], in assay [1] (setting [3]), the Kd was over 501 nM. The IC50 in assay [2] (setting [4]) is 1260 to 3160 nM.

Consider `C[C@@H](O)[C@H](NC(=O)[C@@H](NC(=O)[C@@H]1CSSC[C@H](NC(=O)[C@H](Cc2ccccc2)NC(=O)C(C)(C)NC(=O)CC2NC(=O)NC2=O)C(=O)N[C@@H](CCCCN)C(=O)N[C@@H](CCCNC(=N)N)C(=O)NC(C)(C)C(=O)N[C@@H](CC(N)=O)C(=O)N1)C(C)(C)C)C(N)=O` (stereo partly drawn) [PSM-0518, HYDAc-Aib-Phe-[Cys-Lys-Arg-Aib-Asn-Cys]-Tle-Thr-NH2] (X15-[Aib]FCKR[Aib]NC[Tle]T-NH2; disulfide 3-8), for which the Kd in assay [1] (setting [3]) is under 12.6 nM. Also, the IC50 in assay [2] (setting [4]) was under 200 nM.

On to `CC(C)C[C@H](NC(=O)CC1CCN(C(=O)CN2CCN(CC(=O)O)CCN(CC(=O)O)CCN(CC(=O)O)CC2)CC1)C(=O)NC(C)(C)C(=O)N[C@@H](Cc1ccccc1)C(=O)N[C@H]1CSSC[C@@H](C(=O)N[C@H](C(=O)N[C@H](C(N)=O)[C@@H](C)O)C(C)(C)C)NC(=O)[C@H](CC(N)=O)NC(=O)C(C)(C)NC(=O)[C@H](CCCNC(=N)N)NC(=O)[C@H](CCCCN)NC1=O` [PSM-0220, DOTA-Cmp-Leu-Aib-Phe-[Cys-Lys-Arg-Aib-Asn-Cys]-Tle-Thr-NH2] ({DOTA}-[X1]L[Aib]FCKR[Aib]NC[Tle]T-NH2; disulfide 5-10), for which, in assay [1] (SPR, hPSMA-Fc, single cycle kinetic, 25° C., category), the Kd was 12.6 to 126 nM. Besides, the IC50 in assay [2] (FACS binding, C4-2 cells, competition with 50 nM PSM-0183, category) is under 200 nM.

In the case of `CC(=O)N[C@@H](Cc1ccc(Cl)cc1)C(=O)N[C@H]1CSSC[C@@H](C(N)=O)NC(=O)[C@H](CC(N)=O)NC(=O)C(C)(C)NC(=O)[C@H](CCCNC(=N)N)NC(=O)[C@H](CCCCN)NC1=O` [PSM-0524, Ac-Pcf-[Cys-Lys-Arg-Aib-Asn-Cys]-NH2] (Ac-[Phe(4-Cl)]CKR[Aib]NC-NH2; disulfide 2-7), the Kd in assay [1] (setting [3]) was over 501 nM. Further, the IC50 in assay [2] (setting [4]) was over 3160 nM.

As to `CC(=O)N[C@H](C(=O)NC(C)(C)C(=O)N[C@@H](Cc1cccc(Cl)c1)C(=O)N[C@H]1CSSC[C@@H](C(=O)N[C@H](C(=O)N[C@H](C(=O)N2CCC(CC(=O)N[C@H](CCCCNC(=O)CN3CCN(CC(=O)O)CCN(CC(=O)O)CCN(CC(=O)O)CC3)C(N)=O)CC2)[C@@H](C)O)C(C)(C)C)NC(=O)[C@H](CC(N)=O)NC(=O)C(C)(C)NC(=O)[C@H](CCCNC(N)=O)NC(=O)[C@H](CCCCN)NC1=O)[C@@H](C)O` [PSM-0275, Ac-Thr-Aib-Mcf-[Cys-Lys-Cit-Aib-Asn-Cys]-Tle-Thr-Cmp-lys(DOTA)-NH2] (Ac-T[Aib][Phe(3-Cl)]CK[Cit][Aib]NC[Tle]T[X1][dK](DOTA)-NH2; disulfide 4-9), the Kd in assay [1] (setting [5]) was 12.6 to 126 nM. The IC50 in assay [2] (setting [6]) was 200 to 1260 nM.

Take `CC(=O)N[C@H](C(=O)NC(C)(C)C(=O)N[C@@H](Cc1ccccc1)C(=O)N[C@H]1CSSC[C@@H](C(=O)NC(C)(C)C(=O)N[C@H](C(N)=O)[C@@H](C)O)NC(=O)[C@H](CC(N)=O)NC(=O)C(C)(C)NC(=O)[C@H](CCCNC(=N)N)NC(=O)[C@H](CCCCN)NC1=O)[C@@H](C)O` [PSM-0394, Ac-Thr-Aib-Phe-[Cys-Lys-Arg-Aib-Asn-Cys]-Aib-Thr-NH2] (Ac-T[Aib]FCKR[Aib]NC[Aib]T-NH2; disulfide 4-9): the Kd in assay [1] (setting [3]) was 12.6 to 126 nM. For the same compound, in assay [2] (setting [4]), the IC50 is 200 to 1260 nM.

Consider `C[C@@H](O)[C@H](NC(=O)[C@@H](NC(=O)[C@@H]1CSSC[C@H](NC(=O)[C@H](Cc2ccc(Cl)cc2)NC(=O)C(C)(C)NC(=O)CCNC(=O)CN2CCN(CC(=O)O)CCN(CC(=O)O)CCN(CC(=O)O)CC2)C(=O)N[C@@H](CCCCN)C(=O)N[C@@H](CCCNC(=N)N)C(=O)NC(C)(C)C(=O)N[C@@H](CC(N)=O)C(=O)N1)C(C)(C)C)C(N)=O` [PSM-0352, DOTA-Bal-Aib-Pcf-[Cys-Lys-Arg-Aib-Asn-Cys]-Tle-Thr-NH2] ({DOTA-βAla}-[Aib][Phe(4-Cl)]CKR[Aib]NC[Tle]T-NH2; disulfide 3-8), for which the Kd in assay [1] (setting [5]) is under 12.6 nM. Moreover, the IC50 in assay [2] (setting [6]) is under 200 nM.
